Molecules are shown by their SMILES. Starred links: 1 amine or outer side, 2 acyl side, 3 side chain; linkers in the order of their positions; H or OH if unused. Positions of bridges follow the written chain, without caps; N, C: chain ends. Non-standard residues stand in square brackets, D forms with d. Residues, ends and D or L forms follow the SMILES beside them. *: point of attachment. hTyr(3S-OH,4S-OH,3'-OSO3H) = N[C@H](C(=O)O)[C@H](O)[C@@H](O)c1ccc(O)c(OS(=O)(=O)O)c1; Orn(4R-OH,5R-OH) = O=C([C@H](C[C@@H](O)[C@@H](O)N[*:3])N[*:1])[*:2]; Pro(3S-OH,4S-Me) = C[C@H]1CN[C@H](C(=O)O)[C@H]1O; X1 = CCCCCOc1ccc(-c2cc(-c3ccc(C(=O)*)cc3)no2)cc1; Gln(3R-OH) = NC(=O)C[C@@H](O)[C@H](N)C(=O)O; Hyp = O=C(O)[C@@H]1C[C@@H](O)CN1

The nature of this data set: Ratio of dry weight to wet weight (Dry/Wet) of filtered solids. The format is physicochemical. To be noted: wet solids weighed after filtration, before drying. The text has this:
As used herein, the term “Dry/Wet” and “ratio of dry weight to wet weight” can be used interchangeably, both of which refer to the ratio of the weight of a compound without solvent(s) to the weight of the compound with solvent(s). In the present invention, wet weight of crystals is obtained by filtering the crystallized solids until no noticeable droplet outflows and weighing the solids.
With `CCCCCOc1ccc(-c2cc(-c3ccc(C(=O)N[C@H]4C[C@@H](O)[C@@H](O)NC(=O)[C@@H]5[C@@H](O)[C@@H](C)CN5C(=O)[C@H]([C@H](O)CC(N)=O)NC(=O)[C@H]([C@H](O)[C@@H](O)c5ccc(O)c(OS(=O)(=O)[O-])c5)NC(=O)[C@@H]5C[C@@H](O)CN5C(=O)[C@H]([C@@H](C)O)NC4=O)cc3)no2)cc1.[Na+]` [Comparative Example 4] (X1-[Orn(4R-OH,5R-OH)]T[Hyp][hTyr(3S-OH,4S-OH,3'-OSO3H)][Gln(3R-OH)][Pro(3S-OH,4S-Me)]; lactam 1-C), the “ratio of dry weight to wet weight (Dry/Wet)” value (from here on “ratio … (Dry/Wet)”) amounted to 0.19.
On to `CCCCCOc1ccc(-c2cc(-c3ccc(C(=O)N[C@H]4C[C@@H](O)[C@@H](O)NC(=O)[C@@H]5[C@@H](O)[C@@H](C)CN5C(=O)[C@H]([C@H](O)CC(N)=O)NC(=O)[C@H]([C@H](O)[C@@H](O)c5ccc(O)c(OS(=O)(=O)[O-])c5)NC(=O)[C@@H]5C[C@@H](O)CN5C(=O)[C@H]([C@@H](C)O)NC4=O)cc3)no2)cc1.[Na+]` [Comparative Example 5] (X1-[Orn(4R-OH,5R-OH)]T[Hyp][hTyr(3S-OH,4S-OH,3'-OSO3H)][Gln(3R-OH)][Pro(3S-OH,4S-Me)]; lactam 1-C), for which the “ratio … (Dry/Wet)” value came out at 0.18.
As for `CCCCCOc1ccc(-c2cc(-c3ccc(C(=O)N[C@H]4C[C@@H](O)[C@@H](O)NC(=O)[C@@H]5[C@@H](O)[C@@H](C)CN5C(=O)[C@H]([C@H](O)CC(N)=O)NC(=O)[C@H]([C@H](O)[C@@H](O)c5ccc(O)c(OS(=O)(=O)[O-])c5)NC(=O)[C@@H]5C[C@@H](O)CN5C(=O)[C@H]([C@@H](C)O)NC4=O)cc3)no2)cc1.[Na+]` [Comparative Example 6] (X1-[Orn(4R-OH,5R-OH)]T[Hyp][hTyr(3S-OH,4S-OH,3'-OSO3H)][Gln(3R-OH)][Pro(3S-OH,4S-Me)]; lactam 1-C), the figure is 0.21; as for `CCCCCOc1ccc(-c2cc(-c3ccc(C(=O)N[C@H]4C[C@@H](O)[C@@H](O)NC(=O)[C@@H]5[C@@H](O)[C@@H](C)CN5C(=O)[C@H]([C@H](O)CC(N)=O)NC(=O)[C@H]([C@H](O)[C@@H](O)c5ccc(O)c(OS(=O)(=O)[O-])c5)NC(=O)[C@@H]5C[C@@H](O)CN5C(=O)[C@H]([C@@H](C)O)NC4=O)cc3)no2)cc1.[Na+]` [Comparative Example 7] (X1-[Orn(4R-OH,5R-OH)]T[Hyp][hTyr(3S-OH,4S-OH,3'-OSO3H)][Gln(3R-OH)][Pro(3S-OH,4S-Me)]; lactam 1-C), 0.2; as for `CCCCCOc1ccc(-c2cc(-c3ccc(C(=O)N[C@H]4C[C@@H](O)[C@@H](O)NC(=O)[C@@H]5[C@@H](O)[C@@H](C)CN5C(=O)[C@H]([C@H](O)CC(N)=O)NC(=O)[C@H]([C@H](O)[C@@H](O)c5ccc(O)c(OS(=O)(=O)[O-])c5)NC(=O)[C@@H]5C[C@@H](O)CN5C(=O)[C@H]([C@@H](C)O)NC4=O)cc3)no2)cc1.[Na+]` [Comparative Example 8] (X1-[Orn(4R-OH,5R-OH)]T[Hyp][hTyr(3S-OH,4S-OH,3'-OSO3H)][Gln(3R-OH)][Pro(3S-OH,4S-Me)]; lactam 1-C), 0.15.
As for `CCCCCOc1ccc(-c2cc(-c3ccc(C(=O)N[C@H]4C[C@@H](O)[C@@H](O)NC(=O)[C@@H]5[C@@H](O)[C@@H](C)CN5C(=O)[C@H]([C@H](O)CC(N)=O)NC(=O)[C@H]([C@H](O)[C@@H](O)c5ccc(O)c(OS(=O)(=O)[O-])c5)NC(=O)[C@@H]5C[C@@H](O)CN5C(=O)[C@H]([C@@H](C)O)NC4=O)cc3)no2)cc1.[Na+]` [Comparative Example 9] (X1-[Orn(4R-OH,5R-OH)]T[Hyp][hTyr(3S-OH,4S-OH,3'-OSO3H)][Gln(3R-OH)][Pro(3S-OH,4S-Me)]; lactam 1-C), the figure is 0.09; as for `CCCCCOc1ccc(-c2cc(-c3ccc(C(=O)N[C@H]4C[C@@H](O)[C@@H](O)NC(=O)[C@@H]5[C@@H](O)[C@@H](C)CN5C(=O)[C@H]([C@H](O)CC(N)=O)NC(=O)[C@H]([C@H](O)[C@@H](O)c5ccc(O)c(OS(=O)(=O)[O-])c5)NC(=O)[C@@H]5C[C@@H](O)CN5C(=O)[C@H]([C@@H](C)O)NC4=O)cc3)no2)cc1.[Na+]` [Comparative Example 10] (X1-[Orn(4R-OH,5R-OH)]T[Hyp][hTyr(3S-OH,4S-OH,3'-OSO3H)][Gln(3R-OH)][Pro(3S-OH,4S-Me)]; lactam 1-C), 0.23; as for `CCCCCOc1ccc(-c2cc(-c3ccc(C(=O)N[C@H]4C[C@@H](O)[C@@H](O)NC(=O)[C@@H]5[C@@H](O)[C@@H](C)CN5C(=O)[C@H]([C@H](O)CC(N)=O)NC(=O)[C@H]([C@H](O)[C@@H](O)c5ccc(O)c(OS(=O)(=O)[O-])c5)NC(=O)[C@@H]5C[C@@H](O)CN5C(=O)[C@H]([C@@H](C)O)NC4=O)cc3)no2)cc1.[Na+]` [Comparative Example 11] (X1-[Orn(4R-OH,5R-OH)]T[Hyp][hTyr(3S-OH,4S-OH,3'-OSO3H)][Gln(3R-OH)][Pro(3S-OH,4S-Me)]; lactam 1-C), 0.11.
Turning to `CCCCCOc1ccc(-c2cc(-c3ccc(C(=O)N[C@H]4C[C@@H](O)[C@@H](O)NC(=O)[C@@H]5[C@@H](O)[C@@H](C)CN5C(=O)[C@H]([C@H](O)CC(N)=O)NC(=O)[C@H]([C@H](O)[C@@H](O)c5ccc(O)c(OS(=O)(=O)[O-])c5)NC(=O)[C@@H]5C[C@@H](O)CN5C(=O)[C@H]([C@@H](C)O)NC4=O)cc3)no2)cc1.[Na+]` [Comparative Example 12] (X1-[Orn(4R-OH,5R-OH)]T[Hyp][hTyr(3S-OH,4S-OH,3'-OSO3H)][Gln(3R-OH)][Pro(3S-OH,4S-Me)]; lactam 1-C), the “ratio … (Dry/Wet)” value was 0.18.
Under `CCCCCOc1ccc(-c2cc(-c3ccc(C(=O)N[C@H]4C[C@@H](O)[C@@H](O)NC(=O)[C@@H]5[C@@H](O)[C@@H](C)CN5C(=O)[C@H]([C@H](O)CC(N)=O)NC(=O)[C@H]([C@H](O)[C@@H](O)c5ccc(O)c(OS(=O)(=O)[O-])c5)NC(=O)[C@@H]5C[C@@H](O)CN5C(=O)[C@H]([C@@H](C)O)NC4=O)cc3)no2)cc1.[Na+]` [Comparative Example 13] (X1-[Orn(4R-OH,5R-OH)]T[Hyp][hTyr(3S-OH,4S-OH,3'-OSO3H)][Gln(3R-OH)][Pro(3S-OH,4S-Me)]; lactam 1-C) stands 0.2; under `CCCCCOc1ccc(-c2cc(-c3ccc(C(=O)N[C@H]4C[C@@H](O)[C@@H](O)NC(=O)[C@@H]5[C@@H](O)[C@@H](C)CN5C(=O)[C@H]([C@H](O)CC(N)=O)NC(=O)[C@H]([C@H](O)[C@@H](O)c5ccc(O)c(OS(=O)(=O)[O-])c5)NC(=O)[C@@H]5C[C@@H](O)CN5C(=O)[C@H]([C@@H](C)O)NC4=O)cc3)no2)cc1.[Na+]` [Comparative Example 14] (X1-[Orn(4R-OH,5R-OH)]T[Hyp][hTyr(3S-OH,4S-OH,3'-OSO3H)][Gln(3R-OH)][Pro(3S-OH,4S-Me)]; lactam 1-C), 0.19; under `CCCCCOc1ccc(-c2cc(-c3ccc(C(=O)N[C@H]4C[C@@H](O)[C@@H](O)NC(=O)[C@@H]5[C@@H](O)[C@@H](C)CN5C(=O)[C@H]([C@H](O)CC(N)=O)NC(=O)[C@H]([C@H](O)[C@@H](O)c5ccc(O)c(OS(=O)(=O)[O-])c5)NC(=O)[C@@H]5C[C@@H](O)CN5C(=O)[C@H]([C@@H](C)O)NC4=O)cc3)no2)cc1.[Na+]` [Comparative Example 15] (X1-[Orn(4R-OH,5R-OH)]T[Hyp][hTyr(3S-OH,4S-OH,3'-OSO3H)][Gln(3R-OH)][Pro(3S-OH,4S-Me)]; lactam 1-C), 0.15.

(Values after patent US10138275B2, “Crystalline powder of cyclic peptide compound, preparation method for same, and uses thereof” (SHANGHAI TECHWELL BIOPHARMACEUTICAL CO., LTD, priority 2014, dated 2018).)
